In patent US20230303570A1, “KINASE INHIBITORS AND USES THEREOF” (ABM Therapeutics Corporation, priority 2020, published 2023):

Biological target: HPK1 (MAP4K1) (Homo sapiens, UniProt Q92918)
Assay: HPK1 (MAP4K1) kinase Lantha screen assay
Type: biochemical
Method: The effect of the compounds on the activity of HPK1 (MAP4K1) kinase were assessed by Lantha screen assay. • 1. 1×kinase buffer was prepared (50 mM HEPES, pH 7.5, 10 mM MgCl2, 4 mM DT • 2. Compound and assay plates preparation: • 2-1) The compound was diluted to 100× of the final desired highest inhibitor concentration in reaction by 100% DMSO. For example, if a compound was tested at […], then a solution at 500 µM in DMSO was prepared in this step. • 2-2) For each tested compound, the compound was transferred in tubes to one well on a 96-well storage plate and serially diluted by transferring […] of 100% DMSO in the next well and so forth for a total of 6 concentrations. • 2-3) 100 μl of 100% DMSO were added to two empty wells to serve as no compound control and no enzyme control in the same 96-well plate. The resulting plate was labeled as the source plate. • 2-4) 40 μl of compound from source plate were transferred to a new 384-well Echo plate as the intermediate plate. 100 nl of each well from the 384-well Echo plate were transferred to a 384-well assay plate in duplicates. For example, A1 of the 384-well Echo plate was transferred to A1 and A2 of the 384-well plate. A2 of the 384-well Echo plate was transferred to A3 and A4 of the 384-well plate, and so on; • 3. Kinase reaction: a solution of MAP4K1 in 1× kinase buffer at 2-fold the final concentration of each reagent in the assay was prepared. 5 μl of kinase solution was added to each well of the assay plate, except for control wells without enzyme (add 5 μl of 1× kinase buffer instead). The plate was then shaken, then incubated at room temperature for 10 min. A substrate solution of Fluorescein-PKC and ATP in 1× kinase reaction buffer at 2-fold of the final concentration of each reagent desired in the assay was prepared. 5 μl of substrate solution was added to each well of the assay plate to start reaction. The plate was shaken, then covered, and incubated at room temperature for 90 minutes.
Kinase detection: detection solution of 2-fold of final concentration in Antibody Dilution Buffer was prepared. 10 μl of detection solution was added to each well of the assay plate to stop the reaction. The mixtures were mixed briefly with Centrifuge and incubated at room temperature 60 minutes before reading on a plate reader for fluorescence. Data was collected on Envision with excitation at 340 nm and emission at 520 nm and 495 nm.

HPK1 (MAP4K1), sequence (Q92918 whole entry, species assumed): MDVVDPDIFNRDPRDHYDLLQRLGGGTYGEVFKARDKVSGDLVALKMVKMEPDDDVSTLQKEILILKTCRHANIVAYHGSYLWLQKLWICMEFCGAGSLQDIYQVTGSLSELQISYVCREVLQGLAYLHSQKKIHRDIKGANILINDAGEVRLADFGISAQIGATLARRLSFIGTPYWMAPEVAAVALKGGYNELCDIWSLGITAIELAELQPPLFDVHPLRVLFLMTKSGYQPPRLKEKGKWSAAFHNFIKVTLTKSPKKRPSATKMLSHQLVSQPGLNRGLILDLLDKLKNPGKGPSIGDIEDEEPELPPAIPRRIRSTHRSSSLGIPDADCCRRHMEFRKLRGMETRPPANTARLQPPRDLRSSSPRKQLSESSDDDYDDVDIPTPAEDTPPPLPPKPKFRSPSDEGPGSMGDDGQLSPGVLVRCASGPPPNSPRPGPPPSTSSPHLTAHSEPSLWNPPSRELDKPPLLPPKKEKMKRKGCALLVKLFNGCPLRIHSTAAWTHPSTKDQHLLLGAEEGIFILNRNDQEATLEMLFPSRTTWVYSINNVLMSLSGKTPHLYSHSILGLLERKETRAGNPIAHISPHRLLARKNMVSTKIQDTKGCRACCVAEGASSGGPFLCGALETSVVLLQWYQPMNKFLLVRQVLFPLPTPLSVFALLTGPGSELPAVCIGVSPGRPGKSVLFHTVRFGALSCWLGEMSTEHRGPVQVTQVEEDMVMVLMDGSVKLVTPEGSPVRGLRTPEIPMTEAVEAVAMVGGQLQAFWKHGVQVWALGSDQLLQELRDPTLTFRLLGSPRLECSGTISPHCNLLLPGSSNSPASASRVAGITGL

| SMILES | IC50 [nM] |
| --- | --- |
| Cc1ccc(NC(=O)c2cc(C(F)(F)F)ccn2)cc1C1=Cc2cnc(Nc3nnn[nH]3)nc2N2CCN=C12 [Compound 239, N-(3-(2-((1H-tetrazol-5-yl)amino)-8,9-dihydroimidazo[1′,2′:1,6]pyrido[2,3-d]pyrimidin-6-yl)-4-methylphenyl)-4-(trifluoromethyl)picolinamide] | 100 to 10000 |
| CNc1ncc2c(n1)N1CCN=C1C(c1cc(NC(=O)c3cn(C(C)C)c(=O)n(-c4ccc(F)cc4)c3=O)c(F)cc1C)=C2 [Compound 194, N-(2-fluoro-4-methyl-5-(2-(methylamino)-8,9-dihydroimidazo[1′,2′:1,6]pyrido[2,3-d]pyrimidin-6-yl)phenyl)-3-(4-fluorophenyl)-1-isopropyl-2,4-dioxo-1,2,3,4-tetrahydropyrimidine-5-carboxamide] | 100 to 10000 |
| COCCNc1ncc2c(n1)N1CCN=C1C(c1cc(NC(=O)c3cc(C(F)(F)F)ccn3)ccc1C)=C2 [Compound 112, N-(3-(2-((2-methoxyethyl)amino)-8,9-dihydroimidazo[1′,2′:1,6]pyrido[2,3-d]pyrimidin-6-yl)-4-methylphenyl)-4-(trifluoromethyl)picolinamide] | 100 to 10000 |
| Cc1ccc(Nc2ncc3c(n2)N2CCN=C2C(c2ccccc2Cl)=C3)cn1 [Compound 101, 6-(2-chlorophenyl)-N-(6-methylpyridin-3-yl)-8,9-dihydroimidazo[1′,2′:1,6]pyrido[2,3-d]pyrimidin-2-amine] | 100 to 10000 |
| COc1ccncc1Nc1ncc2c(n1)N1CCN=C1C(c1cc(NC(=O)c3cc(C(F)(F)F)ccn3)ccc1C)=C2 [Compound 223, N-(3-(2-((4-methoxypyridin-3-yl)amino)-8,9-dihydroimidazo[1′,2′:1,6]pyrido[2,3-d]pyrimidin-6-yl)-4-methylphenyl)-4-(trifluoromethyl)picolinamide] | 100 to 10000 |
| Cc1ccc(NC(=O)c2cc(C(F)(F)F)ccn2)cc1C1=Cc2cnc(Nc3ccnn3C)nc2N2CCN=C12 [Compound 235, N-(4-methyl-3-(2-((1-methyl-1H-pyrazol-5-yl)amino)-8,9-dihydroimidazo[1′,2′:1,6]pyrido[2,3-d]pyrimidin-6-yl)phenyl)-4-(trifluoromethyl)picolinamide] | 100 to 10000 |
| Cc1ccc(Nc2ncc3c(n2)N2CCN=C2C(c2cc(NC(=O)c4cc(C(F)(F)F)ccn4)c(F)cc2C)=C3)cn1 [Compound 267, N-(2-fluoro-4-methyl-5-(2-((6-methylpyridin-3-yl)amino)-8,9-dihydroimidazo[1′,2′:1,6]pyrido[2,3-d]pyrimidin-6-yl)phenyl)-4-(trifluoromethyl)picolinamide] | < 100 |
| CNc1ncc2c(n1)N1CCN=C1C(c1cc(NC(=O)C3CC(C(F)(F)F)CCN3)ccc1C)=C2 (stereo not drawn) [Compound 154, N-(4-methyl-3-(2-(methylamino)-8,9-dihydroimidazo[1′,2′:1,6]pyrido[2,3-d]pyrimidin-6-yl)phenyl)-4-(trifluoromethyl)piperidine-2-carboxamide] | > 10000 |
| Cc1ccc(NC(=O)c2cc(C(F)(F)F)ccn2)cc1C1=Cc2cnc(NC3CNC3)nc2N2CCN=C12 [Compound 116, N-(3-(2-(azetidin-3-ylamino)-8,9-dihydroimidazo[1′,2′:1,6]pyrido[2,3-d]pyrimidin-6-yl)-4-methylphenyl)-4-(trifluoromethyl)picolinamide] | 100 to 10000 |
| CNc1ncc2c(n1)N1CCN=C1C(c1cc(NC(=O)C3(C(=O)Nc4ccc(F)cc4)CC3)c(F)cc1C)=C2 [Compound 343, N-(2-fluoro-4-methyl-5-(2-(methylamino)-8,9-dihydroimidazo[1′,2′:1,6]pyrido[2,3-d]pyrimidin-6-yl)phenyl)-N-(4-fluorophenyl)cyclopropane-1,1-dicarboxamide] | > 10000 |
| CNc1ncc2c(n1)N1CCN=C1C(c1cc(NC(=O)c3cc(C(F)(F)F)ccn3)ccc1C)=N2 [Compound 124, N-(4-methyl-3-(2-(methylamino)-8,9-dihydroimidazo[2,1-h]pteridin-6-yl)phenyl)-4-(trifluoromethyl)picolinamide] | 100 to 10000 |
| CNc1ncc2c(n1)N1CCN=C1C(c1cc(NC(=O)c3nccc(C(F)(F)F)n3)ccc1C)=C2 [Compound 148, N-(4-methyl-3-(2-(methylamino)-8,9-dihydroimidazo[1′,2′:1,6]pyrido[2,3-d]pyrimidin-6-yl)phenyl)-4-(trifluoromethyl)pyrimidine-2-carboxamide] | 100 to 10000 |
| Cc1ccc(Nc2ncc3c(n2)N2CCN=C2C(c2cc(NC(=O)c4cccc(C(F)(F)F)c4)ccc2C)=C3)cn1 [Compound 207, N-(4-methyl-3-(2-((6-methylpyridin-3-yl)amino)-8,9-dihydroimidazo[1′,2′:1,6]pyrido[2,3-d]pyrimidin-6-yl)phenyl)-3-(trifluoromethyl)benzamide] | < 100 |
| Cc1ccc(NC(=O)c2cc(C(F)(F)F)ccn2)cc1C1=Cc2cnc(Nc3ccncc3)nc2N2CCN=C12 [Compound 214, N-(4-methyl-3-(2-(pyridin-4-ylamino)-8,9-dihydroimidazo[1′,2′:1,6]pyrido[2,3-d]pyrimidin-6-yl)phenyl)-4-(trifluoromethyl)picolinamide] | < 100 |
| CNc1ncc2c(n1)N1CCN=C1C(c1nc(NC(=O)c3cc(C(F)(F)F)ccn3)ccc1C)=C2 [Compound 192, N-(5-methyl-6-(2-(methylamino)-8,9-dihydroimidazo[1′,2′:1,6]pyrido[2,3-d]pyrimidin-6-yl)pyridin-2-yl)-4-(trifluoromethyl)picolinamide] | > 10000 |
| CNc1ncc2c(n1)N1CCN=C1C(c1cc(C(=O)Nc3cc(C(F)(F)F)ccn3)c(F)cc1C)=C2 [Compound 277, 2-fluoro-4-methyl-5-(2-(methylamino)-8,9-dihydroimidazo[1′,2′:1,6]pyrido[2,3-d]pyrimidin-6-yl)-N-(4-(trifluoromethyl)pyridin-2-yl)benzamide] | 100 to 10000 |
| Cc1cc(F)c(NC(=O)c2cc(C(F)(F)F)ccn2)cc1C1=Cc2cnc(Nc3ccn(C)n3)nc2N2CCN=C12 [Compound 269, N-(2-fluoro-4-methyl-5-(2-((1-methyl-1H-pyrazol-3-yl)amino)-8,9-dihydroimidazo[1′,2′:1,6]pyrido[2,3-d]pyrimidin-6-yl)phenyl)-4-(trifluoromethyl)picolinamide] | < 100 |
| O=C(Nc1ccc(Cl)c(C2=Cc3cnc(NC4CCOCC4)nc3N3CCN=C23)c1)c1cc(C(F)(F)F)ccn1 [Compound 138, N-(4-chloro-3-(2-((tetrahydro-2H-pyran-4-yl)amino)-8,9-dihydroimidazo[1′,2′:1,6]pyrido[2,3-d]pyrimidin-6-yl)phenyl)-4-(trifluoromethyl)picolinamide] | < 100 |
| CNc1ncc2c(n1)N1CCN=C1C(c1cc(NC(=O)c3cc(C#N)ccn3)ccc1C)=C2 [Compound 159, 4-cyano-N-(4-methyl-3-(2-(methylamino)-8,9-dihydroimidazo[1′,2′:1,6]pyrido[2,3-d]pyrimidin-6-yl)phenyl)picolinamide] | 100 to 10000 |
| Cc1ccc(NC(=O)c2cc(C(F)(F)F)ccn2)cc1C1=Cc2cnc(Nc3cccnc3C)nc2N2CCN=C12 [Compound 209, N-(4-methyl-3-(2-((2-methylpyridin-3-yl)amino)-8,9-dihydroimidazo[1′,2′:1,6]pyrido[2,3-d]pyrimidin-6-yl)phenyl)-4-(trifluoromethyl)picolinamide] | < 100 |
| COc1ccc(Nc2ncc3c(n2)N2CCN=C2C(c2cc(NC(=O)c4cc(C(F)(F)F)ccn4)ccc2C)=C3)cn1 [Compound 221, N-(3-(2-((6-methoxypyridin-3-yl)amino)-8,9-dihydroimidazo[1′,2′:1,6]pyrido[2,3-d]pyrimidin-6-yl)-4-methylphenyl)-4-(trifluoromethyl)picolinamide] | < 100 |
| Cc1ccc(Nc2ncc3c(n2)N2CCN=C2C(c2cc(NC(=O)c4cc(C(F)(F)F)ccn4)ccc2C)=C3)cc1F [Compound 228, N-(3-(2-((3-fluoro-4-methylphenyl)amino)-8,9-dihydroimidazo[1′,2′:1,6]pyrido[2,3-d]pyrimidin-6-yl)-4-methylphenyl)-4-(trifluoromethyl)picolinamide] | < 100 |
| CNc1cc2c(cn1)C=C(c1cc(NC(=O)c3cc(C(F)(F)F)ccn3)ccc1C)C1=NCCN12 [Compound 132, N-(4-methyl-3-(8-(methylamino)-1,2-dihydroimidazo[1,2-a][1,6]naphthyridin-4-yl)phenyl)-4-(trifluoromethyl)picolinamide] | 100 to 10000 |
| Cc1ccc(NC(=O)c2cc(C(F)(F)F)ccn2)cc1C1=Cc2cnc(Nc3ccncc3F)nc2N2CCN=C12 [Compound 219, N-(3-(2-((3-fluoropyridin-4-yl)amino)-8,9-dihydroimidazo[1′,2′:1,6]pyrido[2,3-d]pyrimidin-6-yl)-4-methylphenyl)-4-(trifluoromethyl)picolinamide] | 100 to 10000 |
